Reference: patent US20180296507A1, “REDOX-ACTIVATED GLYCOCONJUGATED PROCHELATORS” (ARIZONA BOARD OF REGENTS ON BEHALF OF THE UNIVERSITY OF …, priority 2013, published 2018)
Values joined by “and” are separate entries in the source; they are usually repeats but may differ in a detail not shown here. Identical values can stand only once. “Also recorded” adds a separate entry of the source.

What was measured:
glucose transporters [1] = assay: Competition assay with 2-NBDG in MDA-MB-231 cells (flow cytometry); format: cell-based; conditions: compound 25-100 μM, 30 min, 2-NBDG 200 μM
Description: (§1) The competition assays used fluorescently labeled glucose bioprobe 2-(N-(7-nitrobenz-2-oxa-1,3-diazol-4-yl)amino)-2-deoxyglucose (2-NBDG). […] Without wishing to limit the present invention to any theory or mechanism, it is believed that the glycoconjugation may offer an advantageous increase in cancer cell specificity due to the conjugate being a substrate for the GLUT1 transporter protein and thus taking advantage of its overexpression in cancer cells as compared to normal cells.

[2] = Aqueous solubility by UV-Vis absorption spectroscopy of saturated buffer solutions; format: physicochemical; conditions: 5.0 mM TRIS buffer, pH 7.40; average ± SD of triplicate
Experimental: Solubility measurements. The effect of the sugar motif on the aqueous solubility of the synthesized prochelators was investigated by UV-Visible absorption spectroscopy. Determination of molar extinction coefficients of each compound in aqueous buffer (5.0 mM TRIS, pH 7.40) allowed measurement of their concentration at saturation. Stock solutions were prepared in DMSO and diluted in TRIS buffer (5.0 mM, pH 7.40). Buffer solutions containing identical amounts of DMSO (0.3% v/v) were used to obtain blank spectra. […] For solubility measurements, saturated solutions were centrifuged for 20 minutes at 3,200 rpm to remove any precipitate and concentrations were determined by UV-Vis spectroscopy. […] Measurements were done in a set of triplicates.

CCD18-co cells = assay: MTT cytotoxicity assay in CCD18-co cells; format: cell-based, human; conditions: 72 h exposure, average ± SD of triplicate
Experimental: (§2) Cell culture. Caco-2 (ATCC® HTB-37™) colorectal adenocarcinoma and CCD-18Co (ATCC® CRL-1459™) normal colon fibroblasts were cultured under a 5% CO2 humidified atmosphere at 37° C. in Eagle's Minimal Essential Medium (EMEM) supplemented with 10% fetal bovine serum (FBS), glutamine (2 mM), sodium pyruvate (1 mM), sodium bicarbonate (1.5 g/L), penicillin (100 units/mL), streptomycin (100 μg/mL) and human holo-transferrin (1.25 μM (1 mg/10 mL) prior to use. Flow cytometric analysis was performed at the University of Arizona Cytometry Core Facility (Arizona Cancer Center/Arizona Research Laboratories) using a FACSCanto II flow cytometer (BD Biosciences, San Jose, Calif.) equipped with an air-cooled 15-mW argon ion laser tuned to 488 nm. List mode data files consisting of 10,000 events gated on FSC (forward scatter) vs SSC (side scatter) were acquired and analyzed using CellQuest PRO software (BD Biosciences, San Jose, Calif.). Appropriate electronic compensation was adjusted by acquiring cell populations stained with each dye/fluorophore individually, as well as an unstained control.
(§3) Cytotoxicity assays. The cytotoxicity of the prochelators were assessed using MTT (3-(4,5-dimethylthiazol-2-yl)-2,5-diphenyl-tetrazolium bromide) assays after 72-hour incubations (Table 2). In all cases, the prochelator conjugates are more toxic (lower IC50 values) in the malignant Caco-2 cells than in the normal CCD18-co cells.
(§4) MTT (3-(4,5-dimethylthiazol-2-yl)-2,5-diphenyltetrazolium bromide) viability assays were conducted by standard methods with slight modifications. Cells were seeded at 4000 cells per well for Caco-2 and 10,000 cells per well for CCD18-co and allowed to attach for 24 h. Test compounds dissolved in DMSO were diluted in EMEM to the specified concentration (with final DMSO concentration limited to 0.1%). Cells were incubated in the presence of the test compounds for 72 h, then the MTT solution (4 mg/mL, 10 μL) was added to each well and incubated for 4 h. Following media removal, DMSO (100 μL) was added to each well to dissolve the purple formazan crystals and the plates were incubated for an additional 30 minutes. Absorption at 560 nm was recorded and data were analyzed using logarithmic fits to obtain IC50 values. Each experiment was conducted in triplicate, and values are given as averages plus/minus standard deviation.

glucose transporters [3] = assay: Competition assay of transporter-mediated uptake with 2-NBDG in Caco-2 cells (flow cytometry); format: cell-based, human; conditions: compound 50 μM; for Competition with 2-NBDG for transporter-mediated uptake: Caco-2 cells, 2-NBDG 100 μM, 40 min; for Competition with 2-NBDG (decrease in intracellular fluorescence): CACO-2 cells, 30 min, 2-NBDG 200 μM
Experimental: Co-treatment with glucose (10 mM) and glucose transporter (GLUT1) inhibitor phloretin (100 μM, 30 min) are employed as positive controls. Experiments were conducted in triplicate and values shown are averages±standard deviation. Statistical analysis: ** p<0.01, *** p<0.001 as compared to the control.
as §1
Competition assay of transporter-mediated uptake. Caco-2 cells were plated at 1×10^6 cells per well in 6-well plates and allowed to adhere for 36 hours. Growth media were then removed and cells were incubated for 12 hours in glucose-free EMEM. […] As a positive control, after starvation cells were treated with 100 μM phloretin for 30 minutes, then treated with EMEM containing 100 μM 2-NBDG for 40 minutes. Cells were washed with PBS (1 mL) and detached by addition of Trypsin-EDTA (400 μL) and incubation for 3 minutes at 37° C. Following addition of EMEM (1 mL), the cell suspensions were centrifuged at 125 g for 10 minutes. The resulting pellets were suspended in PBS (0.5 mL) and transferred to a flow cytometry tube. Cells were stored on ice and analyzed by flow cytometry within 1 hour. Data are obtained as the average of three sets of geometric means of the flow cytometry histogram, and plotted as the percent difference from the control plus/minus the standard deviation between three values.

Caco-2 cells = assay: MTT cytotoxicity assay in Caco-2 cells; format: cell-based, human; conditions: for IC50: 72 h exposure, average ± SD of triplicate
Experimental: as §2, §3, §4

intracellular iron [4] = assay: Calcein-based iron displacement assay in suspended Jurkat cells; format: cell-based
Description: In some embodiments, intracellular activation and iron chelation may be investigated using a calcein-based iron displacement assay. This assay may confirm the activation of the prochelators for iron scavenging, and may also indicate the timeframe for cellular entry and iron binding. […] Data such as this may be collected for particular glycoconjugates to assess the duration of uptake and in particular to determine differences among systems carrying different connectivity (e.g., linker, position of glucose substitution) between the sugar and the prochelator units.

intracellular iron [5] = assay: EPR experiments in whole leukemia cells; format: cell-based
Description: Chelators (e.g., TC1SH, TC2SH, TC3SH) are released upon reduction of the disulfide bond. The reduced species (e.g., TC1SH, TC2SH, TC3SH) are tridentate iron chelators forming complexes of 2:1 ligand-to-metal stoichiometry. Magnetic measurements and X-ray crystallographic data on the resulting iron complexes (see FIG. 4, BF4^− counterion not shown) indicate that these chelators stabilize iron centers as low-spin Fe(III) species. […] The present invention is not limited to chelators that stabilize iron centers as low-spin Fe(III) species.

O=C(CCSSc1ccccc1C=NNC(=S)Nc1ccccc1)NC1C(O)OC(CO)C(O)C1O (stereo not shown) [Compound G2TC1]
Uptake of 2-NBDG in the presence of compound (glucose transporters [1]): decreased uptake of the fluorescent glycoconjugate

COc1ccc(NC(=S)NN=Cc2ccccc2SSc2ccccc2C=NNC(=S)Nc2ccc(OC)cc2)cc1 [(TC4-S)2]
Concentration at saturation [2]: <5 μM and <3 mg/L

COc1ccc(NC(=S)NN=Cc2ccccc2SSCCC(=O)NC2C(O)OC(CO)C(O)C2O)cc1 (stereo not shown) [GA2TC4]
IC50 (CCD18-co cells): 22.5 ± 0.8 µM | Competition with 2-NBDG for transporter-mediated uptake (glucose transporters [3]): did not compete for uptake with 2-NBDG

COC(=O)CCSSc1ccccc1C=NNC(=S)Nc1ccc(OC)cc1 [ATC4]
Concentration at saturation [2]: 11 ± 1 μM and 4.7 ± 0.5 mg/L | Times more toxic in Caco-2 cells than in CCD18-co cells (Caco-2 cells; MTT, 72 h): 3 times | IC50 (Caco-2 cells; MTT): 8.1 ± 0.2 µM | Therapeutic Index (Caco-2 cells; ratio of IC50 in normal CCD18-co cells relative to malignant Caco-2 cells): 3.4 ± 0.1 | IC50 (CCD18-co cells): 27.5 ± 0.4 µM

O=C(CCSSc1ccccc1C=NNC(=S)Nc1ccccc1)OCC1OC(O)C(O)C(O)C1O (stereo not shown) [Compound G6TC1]
Competition with 2-NBDG (decrease in intracellular fluorescence) (glucose transporters [3]): better competitors of 2-NBDG; also recorded: over three times the decrease due to G2TC1

COc1ccc(NC(=S)NN=Cc2ccccc2SSCCC(=O)OCC2OC(O)C(O)C(O)C2O)cc1 (stereo not shown) [Compound M6TC4]
IC50 (Caco-2 cells; MTT): 10.1 ± 0.3 µM | IC50 (CCD18-co cells): 62.2 ± 0.1 µM | Competition with 2-NBDG for transporter-mediated uptake (glucose transporters [3]): competed successfully with 2-NBDG

S=C(N/N=C/c1ccccc1SSc1ccccc1/C=N/NC(=S)Nc1ccccc1)Nc1ccccc1 [(TC1S)2]
Timeframe of passive diffusion, activation and iron coordination (intracellular iron [4]): within minutes | Intracellular reduction/activation and formation of low-spin Fe(III) complex (intracellular iron [5]): direct evidence for both the reduction/activation

COc1ccc(NC(=S)NN=Cc2ccccc2SSCCC(=O)OCC2OC(O)C(O)C(O)C2O)cc1 (stereo not shown) [Compound G6TC4]
IC50 (Caco-2 cells; MTT): 6.9 ± 0.4 µM | IC50 (CCD18-co cells): 76 ± 2 µM | Competition with 2-NBDG for transporter-mediated uptake (glucose transporters [3]): competes strongly with 2-NBDG for uptake; also recorded: competes aggressively with fluorescent glycoconjugate 2-NBDG

O=C(CCSSc1ccccc1C=NNC(=S)Nc1ccccc1)OCC1OC(O)C(O)C(O)C1O (stereo not shown) [Compound M6TC1]
Competition with 2-NBDG (decrease in intracellular fluorescence) (glucose transporters [3]): better competitors of 2-NBDG
